Columns and labels:
Hep G2 cell line = assay: Cytotoxicity, MTS cell proliferation assay; type: cell-based; conditions: Hep G2 cells
Description: (§1) All active compounds were additionally evaluated on a cellular level, starting with the determination of cytotoxicity on Hep G2 cell line using the MTS assay (Figure 3), where inner salt of [3-(4,5-dimethylthiazol-2-yl)-5-(3-carboxymethoxyphenyl)-2-(4-sulfophenyl)-2H-tetrazolium is converted to formazan product, its quantity is directly proportional to the number of living cells. Since the majority of compounds were only partially soluble in a cell medium at concentrations above 100 μM, their effect on cell viability was measured at 50 μM, 10 μM, and 1 μM. […] Taken together, the results obtained from cellular tests reminded us of the necessity to consider the physicochemical properties of compounds even at the early stages of design.
Cytotoxicity of the compounds was determined on HepG2 cell line using the MTS cell proliferation assay (CellTiter 96 AQueous One Solution Cell Proliferation Assay, Promega, Madison, WI, USA). The cells were seeded in 96-well plates (3 × 10^4 cells/well) and maintained in Dulbecco’s Modified Eagle’s Medium, supplemented with 10% fetal bovine serum (both from Thermo Fisher Scientific, Waltham, MA, USA) and 100 µg/mL gentamicin (Sigma-Aldrich, St. Louis, MO, USA). Following overnight incubation in a humidified chamber at 37 °C and 5% CO2 cells were treated with the compounds of interest at final concentrations of 1 µM, 10 µM, 50 µM, 100 µM, 150 µM, and 200 µM. After 24h incubation under the same conditions, 100 µL of the medium from each well were collected and mixed with 10 µL of MTS solution. Following 3h incubation, the absorbance (λABS = 490 nm) was measured using a microplate reader (Synergy H4; BioTek Instruments, Inc., Winooski, VT, USA). The results are expressed as means of triplicates ± standard deviation of three independent experiments.

IDO1 [1] = biological target: T1, IDO1 (Homo sapiens, UniProt P14902); assay: hIDO1 inhibitory potency evaluation (fluorescence assay, NFK-derived fluorophore); type: biochemical; design: gene encoding human IDO1 residues 6-403 His-tagged at the N-terminus; His tag (N); made in house; host or cells: Escherichia coli NiCo21
Target sequence in this assay (P14902 6-403): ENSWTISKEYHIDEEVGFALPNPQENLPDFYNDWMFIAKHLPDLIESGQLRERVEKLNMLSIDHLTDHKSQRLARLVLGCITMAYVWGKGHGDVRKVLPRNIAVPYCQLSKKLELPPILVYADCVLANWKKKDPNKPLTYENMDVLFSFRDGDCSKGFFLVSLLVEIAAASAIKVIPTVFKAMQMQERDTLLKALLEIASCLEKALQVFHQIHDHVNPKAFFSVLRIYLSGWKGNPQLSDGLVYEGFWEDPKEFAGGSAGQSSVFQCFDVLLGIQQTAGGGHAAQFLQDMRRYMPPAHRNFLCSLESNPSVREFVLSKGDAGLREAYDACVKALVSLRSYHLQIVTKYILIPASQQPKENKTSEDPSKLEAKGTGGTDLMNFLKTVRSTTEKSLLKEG

IDO1 [2] = biological target: T1, IDO1; assay: Cell-based IDO1 inhibitory assay on IFN-γ treated HeLa cells; design: endogenous in cells; host or cells: HeLa cells treated with human IFN-γ
Description: as §1
Target sequence in this assay (P14902 whole entry, the tested form may be a part): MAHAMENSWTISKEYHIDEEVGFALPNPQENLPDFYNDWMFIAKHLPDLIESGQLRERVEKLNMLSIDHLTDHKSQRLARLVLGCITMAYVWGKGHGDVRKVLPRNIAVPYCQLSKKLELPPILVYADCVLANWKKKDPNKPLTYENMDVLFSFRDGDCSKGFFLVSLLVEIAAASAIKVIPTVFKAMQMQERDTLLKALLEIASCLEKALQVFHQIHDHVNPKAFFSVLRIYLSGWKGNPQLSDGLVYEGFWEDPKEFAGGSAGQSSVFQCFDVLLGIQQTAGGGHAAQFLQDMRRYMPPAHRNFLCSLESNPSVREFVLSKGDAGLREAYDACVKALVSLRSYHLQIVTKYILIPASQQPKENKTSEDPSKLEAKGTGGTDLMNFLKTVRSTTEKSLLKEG
HeLa cells were seeded in 96-well plates (2 × 10^4 cells/well) and maintained in Dulbecco’s modified Eagle’s medium, supplemented with 10% fetal bovine serum (both from Thermo Fisher Scientific, Waltham, MA, USA) and 100 µg/mL gentamicin (Sigma-Aldrich, St. Louis, MO, USA). Following overnight incubation in a humidified chamber at 37 °C and 5% CO2 cells were treated with human IFN-γ (50 ng/mL final concentration). […] The absorbance (λABS = 480 nm) of the yellow color derivate formed after 10 min was measured using a microplate reader (Synergy H4; BioTek Instruments, Inc., Winooski, VT, USA).

hIDO1 inhibition (in words) (IDO1 [1]): low micromolar range | IC50 (IDO1 [1]; recombinant hIDO1, mean ± SD of at least two independent determinations, read-out: IDO1 IC50): 23 µM | cell-based IDO1 inhibition (IDO1 [2]): no activity was detected
SMILES: O=C(Cn1cnc2onc(-c3ccc(F)cc3)c2c1=O)Nc1ccc(C(F)(F)F)cc1 [Compound 23]
cytotoxicity profile (Hep G2 cell line): satisfying cytotoxicity profile
